Laboratory results: US20030104945A1, “2,4-Diamino-1,3,5-triazines, their preparation, and their use as herbicides and plant growth regulators” (priority 2001, published 2003)

Columns and labels:
Format in all cases: in vivo
[1] = test system: harmful plants such as Stellaria media, Lolium multiflorum, Amaranthus retroflexus, Sinapis alba, Avena sativa and Setaria viridis; assay: Pre-emergence herbicidal action (greenhouse pot test); settings: application rate of 1 kg or less active substance per hectare, scored after 3 to 4 weeks vs untreated controls
Source text: Seeds and rhizome sections of monocotyledonous and dicotyledonous harmful plants are placed in sandy loam in plastic pots and covered with soil. The compounds according to the invention which are formulated in the form of wettable powders or emulsion concentrates at various rates, are then applied to the surface of the covering soil as aqueous suspension or emulsion at an application rate of 600 to 800 l of water per ha (converted).
After the treatment, the pots are placed in the greenhouse and kept under good growth conditions for the weeds. Visual scoring of the plant damage or the adverse effect on emergence is done after the test plants have emerged after an experimental period of 3 to 4 weeks in comparison with untreated controls.

[2] = test system: harmful plants such as Sinapis alba, Echinochloa crus-galli, Lolium multiflorum, Stellaria media, Cyperus iria, Amaranthus retroflexus, Setaria viridus and …; assay: Post-emergence herbicidal action (greenhouse pot test); settings: three-leaf stage, application rate of 1 kg and less of active substance per hectare, scored after approx. 3 to 4 weeks vs untreated controls
Protocol: Seeds or rhizome sections of monocotyledonous and dicotyledonous weeds are placed in sandy loam soil in plastic pots, covered with soil and grown in the greenhouse under good growth conditions. Three weeks after sowing, the experimental plants are treated at the three-leaf stage. The compounds according to the invention, which are formulated as wettable powders or as emulsion concentrates, are sprayed at various rates onto the green plant organs at an application rate of 600 to 800 l of water per ha (converted). After the experimental plants have remained in the greenhouse for approx. 3 to 4 weeks under optimal growth conditions, the effect of the compositions is scored visually in comparison with untreated controls. The substances according to the invention also have a good herbicidal action against a broad spectrum of economically important grass weeds and broad-leaved weeds when applied post-emergence.

[3] = test system: harmful plants which are typical of rice crops such as, for example, Cyperus monti, Echinochloa crus-galli and Sagittaria pygmaea; assay: Activity against harmful plants in rice (paddy rice conditions); settings: poured into paddy water at various dosages; scored about three weeks after application vs untreated controls; further: test concentration or dose not given here
Protocol: Transplanted and seeded rice and typical grass weeds and broad-leaved weeds in rice crops are grown in the greenhouse under paddy rice conditions (depth of the paddy water: 2-3 cm) in sealed plastic pots until they have reached the three-leaf stage (Echinochloa crus-galli 1.5-leaf). They are then treated with the compounds according to the invention. To this end, the formulated active substances are suspended, dissolved or emulsified in water and the product is poured into the paddy water of the test plants at various dosages. After the treatment has been carried out thus, the test plants are placed in the greenhouse under optimal growth conditions and kept like this over the entire experimental period.
About three weeks after application, the evaluation is carried out by is of visually scoring the plant damage in comparison with untreated controls.

CC(Nc1nc(N)nc(C(C)(C)F)n1)[C@@H]1C[C@H]1c1ccccc1 (relative stereo) [Example 1-1]
very good herbicidal activity: herbicidal activity, visual scoring of plant damage or adverse effect on emergence [1] | herbicidal activity, visual scoring [2] | herbicidal activity, visual scoring of plant damage [3]

CC(F)c1nc(N)nc(NC(C2CC2)[C@@H]2C[C@H]2c2ccccc2)n1 (relative stereo) [Example 3-3]
very good herbicidal activity: herbicidal activity, visual scoring of plant damage or adverse effect on emergence [1] | herbicidal activity, visual scoring [2] | herbicidal activity, visual scoring of plant damage [3]
